Source: patent US6916802B2, “Amino ceramide-like compounds and therapeutic methods of use” (Genzyme Corporation, priority 2002, dated 2005)

How the values were obtained:
GlcCer synthase = biological target: T1, GlcCer synthase (Canis lupus familiaris, UniProt A0A8I3MXG6); assay: Glycosylceramide synthase activity, MDCK cell homogenate (Specific Example 2); type: biochemical, canine
T1 sequence (A0A8I3MXG6 1-394): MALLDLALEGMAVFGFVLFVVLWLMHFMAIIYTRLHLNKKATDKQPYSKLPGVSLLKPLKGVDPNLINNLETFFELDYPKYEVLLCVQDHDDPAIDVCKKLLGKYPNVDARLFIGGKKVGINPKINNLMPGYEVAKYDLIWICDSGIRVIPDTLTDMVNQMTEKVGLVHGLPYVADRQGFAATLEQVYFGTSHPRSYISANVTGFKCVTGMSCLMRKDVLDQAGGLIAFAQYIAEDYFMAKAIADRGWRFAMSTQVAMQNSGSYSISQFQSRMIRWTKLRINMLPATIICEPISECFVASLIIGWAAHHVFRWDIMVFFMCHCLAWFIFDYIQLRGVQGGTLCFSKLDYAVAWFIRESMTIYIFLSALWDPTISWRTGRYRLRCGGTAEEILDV
Method: Glycosylceramide synthase activity. The enzyme activity was measured by the method previously described in Skukla, G. et al., Biochim. Biophys. Acta, 1083:101-108 (1991). MDCK cell homogenate (120 μg of protein) was incubated with uridinediphosphate [^3H]glucose (100,000 cpm) and liposomes consisting of 85 μg octanoylsphingosine, 570 μg dioleoyphosphatidylcholine and 100 μg sodium sulfatide in 200 μl of reaction mixture and kept for 1 h at 37° C. P4 and P4 derivatives dissolved in dimethyl sulfoxide were dispersed into the reaction mixture after adding liposomes. The final concentration of dimethyl sulfoxide was kept 1% under which the enzyme activity was not at all inhibited.

[1] = biological target: T2, 1-O-acylceramide synthase (Canis lupus familiaris, UniProt Q6XPZ3); assay: 1-O-acylceramide synthase (transacylase) assay; type: biochemical; details: D-threo enantiomers, FIG. 12
T2 construct: the 1-O-acylceramide synthase assayed in the cellular homogenates; endogenous in cells; host or cells: cellular homogenates (MDCK, from context)
T2 sequence (Q6XPZ3 32-408): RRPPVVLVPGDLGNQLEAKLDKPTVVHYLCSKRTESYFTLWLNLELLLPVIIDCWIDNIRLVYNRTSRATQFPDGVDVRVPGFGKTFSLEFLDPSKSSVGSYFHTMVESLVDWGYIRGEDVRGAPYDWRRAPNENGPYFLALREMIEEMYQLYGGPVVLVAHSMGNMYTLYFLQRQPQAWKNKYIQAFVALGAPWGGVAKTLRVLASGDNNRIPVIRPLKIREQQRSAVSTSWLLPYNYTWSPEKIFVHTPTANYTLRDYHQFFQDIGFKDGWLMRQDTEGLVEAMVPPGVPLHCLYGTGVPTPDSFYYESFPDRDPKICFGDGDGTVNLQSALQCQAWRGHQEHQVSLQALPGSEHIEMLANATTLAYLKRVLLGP
Description: Distinguishing Between Inhibition of GlcCer Synthase and 1-O-acylceramide Synthase Inhibition. […] An alternative pathway for ceramide metabolism was subsequently identified, the acylation of ceramide at the 1-hydroxyl position, which was blocked by both threo and erythro diastereomers of PDMP. The specificities of D-threo-P4, D-threo-3′,4′-ethylenedioxy-P4, and D-threo-(4′-hydroxy)-P4 for GlcCer synthase were studied by assaying the transacylase.

MDCK cells [2] = assay: GlcCer, ceramide and diradylglycerol content of treated MDCK cells (Specific Example 2); type: cell-based, canine
Method: Cell culture and lipid extraction. One half million of MDCK cells were seeded into 10 cm style dish containing 8 ml serum free DMEM supplemented medium. Shayman, J. A. et al., J. Biol. Chem., 265:12135-12138 (1990). […] The GlcCer synthase inhibitors were added into the medium as a one to one complex with delipidated BSA. Abe, A. et al., J. Lipid. Res., 36:611-621 (1995); Abe, A. et al., Biochim. Biophys. Acta, 1299:331-341 (1996). The cells were incubated for 24 h or 48 h with the inhibitors. After the incubation, the cells were washed twice with 8 ml of cold PBS and fixed with 2 ml of cold methanol. The fixed cells were scraped and transferred to a glass tube. Another one ml of methanol was used to recover the remaining cells in the dish.
Three ml of chloroform was added to the tube and briefly sonicated using a water bath type sonicator. After centrifugation at 800 g for 5 min, the supernatant was transferred into another glass tube. The residues were reextracted with chloroform/methanol (1/1). After the centrifugation, the resultant supernatant was combined with the first one. The residues were air-dried and kept for protein analysis. Adding 0.9% NaCl to the supematant combined, the ratio of chloroform/methanol/aqueous was adjusted to 1/1/1. After centrifugation 800 g for 5 min, the upper layer was discarded. Methanol/water (1/1) with the same amount of volume of the lower layer was used to wash. The resultant lower layer was transferred into a small glass tube and dried down under a stream of nitrogen gas. A part of the lipid was used for lipid phosphate determination. Ames, B. N., Methods Enzymol., 8:115-118 (1966). The remainder was analyzed using HPTLC (Merck).
In order to determine whether inhibition of 1-O-acylceramide synthase was the basis for inhibitor mediated ceramide accumulation, the ceramide and diradylglycerol levels of MDCK cells treated D-threo-P4, D-threo-3′,4′-ethylenedioxy-P4, and D-threo-(4′-hydroxy)-P4 were measured (Table 9). MDCK cells (5×10^5) were seeded into a 10 cm dish and incubated for 24 h. Following the incubation, the cells were treated for 24 or 48 h with or without P4 or the phenyl substitute homologues. Both ceramide and diradylglycerol contents were determined by the method of Preis, J. et al., J. Biol. Chem., 261:8597-8600 (1986). GlcCer content was measured densitometrically by a video camera and use of NIH image 1.49. Significant increases in both ceramide and diradylglycerol occurred only in cells treated with inhibitor concentrations in excess of 1 mM. This was approximately 30-fold lower than the concentration required for inhibition of the 1-O-acylceramide synthase assayed in the cellular homogenates. […] Abe, A. et al., Biochim. Biophys. Acta, 1299:331-341 (1996).
(§1) Effects of D-threo-P4, D-threo4′-hydroxy-P4 and D-threo-3,4′-ethylenedioxy-P4 on GlcCer Synthesis and Cell Growth. To confirm the cellular specificity of D-threo-3′,4′-ethylenedioxy-P4 and D-threo-(4′-hydroxy)-P4 as compared to D-threo-P4, MDCK cells were treated with different concentrations of the inhibitors. The total protein amount in each sample was determined by the BCA method. In GlcCer analysis, lipid samples and standard lipids were applied to the same HPTLC plate pre-treated with borate and developed in a solvent consisting of C/M/W (63/24/4). The level of GlcCer was estimated from a standard curve obtained using a computerized image scanner. The values were normalized on the basis of the phospholipid content. The results are shown in FIG. 7, wherein each bar is the average values from three dishes, with error bars corresponding to one standard deviation. In the control, the total protein and GlcCer were 414±47.4 μg/dish and 24.3±1.97 ng/nmol phosphate, respectively.

MDCK cells [3] = assay: Cell growth of treated MDCK cells, total protein (Specific Example 2); type: cell-based, canine
Method: Cell culture and lipid extraction. One half million of MDCK cells were seeded into 10 cm style dish containing 8 ml serum free DMEM supplemented medium. Shayman, J. A. et al., J. Biol. Chem., 265:12135-12138 (1990). After 24 h the medium was replaced with 8 ml of the medium containing 0, 11.8, 118 or 1180 nM D-t-P4, D-t-3′,4′-ethylenedioxy-P4 or D-4′-hydroxy)-P4. The GlcCer synthase inhibitors were added into the medium as a one to one complex with delipidated BSA. Abe, A. et al., J. Lipid. Res., 36:611-621 (1995); Abe, A. et al., Biochim. Biophys. Acta, 1299:331-341 (1996). The cells were incubated for 24 h or 48 h with the inhibitors. After the incubation, the cells were washed twice with 8 ml of cold PBS and fixed with 2 ml of cold methanol. The fixed cells were scraped and transferred to a glass tube. Another one ml of methanol was used to recover the remaining cells in the dish.
as §1

activity in blocking 1-O-acylceramide synthase [1]	Compound	potency as GlcCer synthase inhibitor, in words (GlcCer synthase)	GlcCer lost from the cells (depletion) (MDCK cells [2]; 11.3 nM inhibitor)	Ceramide (pmol/nmol phospholipids) (MDCK cells [2]; 11.3 nM, 24 h)	Diradylglycerol (pmol/nmol phospholipids) (MDCK cells [2]; 11.3 nM, 24 h)	Ceramide (pmol/nmol phospholipids) (MDCK cells [2]; 11.3 nM, 48 h)	Diradylglycerol (pmol/nmol phospholipids) (MDCK cells [2]; 11.3 nM, 48 h)	Ceramide (pmol/nmol phospholipids) (MDCK cells [2]; 113 nM, 24 h)	Diradylglycerol (pmol/nmol phospholipids) (MDCK cells [2]; 113 nM, 24 h)	Ceramide (pmol/nmol phospholipids) (MDCK cells [2]; 113 nM, 48 h)	Diradylglycerol (pmol/nmol phospholipids) (MDCK cells [2]; 113 nM, 48 h)	level of ceramide versus untreated cells (MDCK cells [2]; 1130 nM)	Ceramide (pmol/nmol phospholipids) (MDCK cells [2]; 1130 nM, 24 h)	Diradylglycerol (pmol/nmol phospholipids) (MDCK cells [2]; 1130 nM, 24 h)	Ceramide (pmol/nmol phospholipids) (MDCK cells [2]; 1130 nM, 48 h)	Diradylglycerol (pmol/nmol phospholipids) (MDCK cells [2]; 1130 nM, 48 h)	total protein versus untreated cells (MDCK cells [3]; 1130 nM)	total protein content versus untreated cells (MDCK cells [3]; 11.3 or 113 nM)
	CCCCCCCCCCCCCCCC(=O)N[C@H](CN1CCCC1)[C@H](O)c1ccc(OC)c(OC)c1 [D-t-3′,4′-dimethoxy-P4]	inferior to these dioxy derivatives																
comparable activity	CCCCCCCCCCCCCCCC(=O)N[C@H](CN1CCCC1)[C@H](O)c1ccc(O)cc1 [D-threo-4′-hydroxy-P4, D-t-4′-hydroxy-1-phenyl-2-palmitoylamino-3-pyrrolidino-1-propanol]	twice as active as the p-methoxy compound	Approximately 66%	4.29 ± 0.71 pmol/nmol phospholipids	30.9 ± 2.01 pmol/nmol phospholipids	6.70 ± 0.29 pmol/nmol phospholipids	38.4 ± 1.44 pmol/nmol phospholipids	5.09 ± 0.95 pmol/nmol phospholipids	31.5 ± 3.84 pmol/nmol phospholipids	7.47 ± 0.29 pmol/nmol phospholipids	41.5 ± 0.66 pmol/nmol phospholipids	two times higher	7.38 ± 0.13 pmol/nmol phospholipids	38.5 ± 3.84 pmol/nmol phospholipids	13.4 ± 1.03 pmol/nmol phospholipids	47.2 ± 2.51 pmol/nmol phospholipids	significant decrease	little difference
